Test results: patent US6586424B2, “Tyrosine kinase inhibitors” (Merck & Co., Inc., priority 1999, dated 2003)
Structures can show the parent of a compound that is named as a salt.

| Compound | melting point [°C] |
| --- | --- |
| CCc1cnc(Nc2ccccn2)s1 [Compound 4-18, (5-Ethyl-thiazol-2-yl)-pyridin-2-yl-amine] | 113 |
| COC(=O)c1cccc(Nc2ncc(-c3ccccc3)s2)n1 [Compound 4-6, 6-(5-Phenyl-thiazol-2-ylamino)-pyridine-2-carboxylic Acid Methyl Ester] | 231 to 232 |
| Fc1cccc(-c2cnc(Nc3ccccn3)s2)c1 [Compound 5-19, [5-(3-Fluoro-phenyl)-thiazol-2-yl]-pyridin-2-yl-amine] | > 250 |
| Clc1ccc(-c2cnc(Nc3ccccn3)s2)cc1Cl [Compound 5-24, [5-(3,4-dichloro-phenyl)-thiazol-2-yl]-pyridin-2-yl-amine] | > 250 |
| Cc1ccccc1-c1cnc(Nc2ccccn2)s1 [Compound 5-6, Pyridin-2-yl-(5-o-tolyl-thiazol-2-yl)-amine] | 155 to 160 |
| c1ccc(Nc2ncc(-c3cccc4ccccc34)s2)nc1 [Compound 5-9, (5-Naphthalen-1-yl-thiazol-2-yl)-pyridin-2-yl-amine] | 223.5 to 226 |
| Fc1ccccc1-c1cnc(Nc2ccccn2)s1 [Compound 5-18, [5-(2-Fluoro-phenyl)-thiazol-2-yl]-pyridin-2-yl-amine] | 227 to 228 |
| FC(F)(F)c1ccccc1-c1cnc(Nc2ccccn2)s1 [Compound 5-14, Pyridin-2-yl[5-(2-trifluoromethyl-phenyl)-thiazol-2-yl]-amine] | 195 to 203 |
| FC(F)(F)c1cccc(-c2cnc(Nc3ccccn3)s2)c1 [Compound 5-15, Pyridin-2-yl-[5-(3-trifluoromethyl-phenyl)-thiazol-2-yl]-amine] | 242 to 244 |
| Clc1ccc(-c2cnc(Nc3ccccn3)s2)cc1 [Compound 5-23, [5-(4-Chloro-phenyl)-thiazol-2-yl]-pyridin-2-yl-amine] | > 250 |
| Clc1ccccc1-c1cnc(Nc2ccccn2)s1 [Compound 5-21, [5-(2-Chloro-phenyl)-thiazol-2-yl]-pyridin-2-yl-amine] | 213 to 215 |
| Cc1cccc(-c2cnc(Nc3ccccn3)s2)c1 [Compound 5-7, Pyridin-2-yl-(5-m-tolyl-thiazol-2-yl)-amine] | 204 to 205 |
| FC(F)(F)c1ccc(-c2cnc(Nc3ccccn3)s2)cc1 [Compound 5-16, Pyridin-2-yl-[5-(4-trifluoromethyl-phenyl)-thiazol-2-yl]-amine] | > 250 |
| Fc1ccc(-c2cnc(Nc3ccccn3)s2)cc1 [Compound 5-20, [5-(4-Fluoro-phenyl)-thiazol-2-yl]-pyridin-2-yl-amine] | 239 to 240 |
| Brc1ccc(Nc2ncc(-c3ccccc3)s2)nc1 (as salt: HBr) [Compound 4-4, (5-Bromo-pyridin-2-yl)-(5-phenyl-thiazol-2-yl)-amine] | > 220 |
